Test system: 361931-004-R-J1-PDC multicell spheroid viability
Assay: Anticancer human tumor 361931-004-R-J1-PDC patient-derived colon adenocarcinoma cell line growth inhibition [PI3K]
Conditions: for IC50: curve of first compound; for viability, T/C: stronger effect = lower value; active = viability on the fitted dose curve at most 10% of control; inactive = the rest
In short: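 Stroma-containing spheroids: tumor line, pooled-donor HUVEC, hMSC. Treatments: targeted agents with PI3K inhibitors. Dosing: clinically relevant, half-log spacing, 10 microM ceiling without known Cmax. Read-out: cell viability.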

[1] = second compound 0.0316 µM, first compound 0.0316 µM
[2] = second compound 0.0316 µM, first compound 0.1 µM
[3] = second compound 0.0316 µM, first compound 0.316 µM
[4] = second compound 0.0316 µM, first compound 1 µM
[5] = second compound 0.0316 µM, first compound 3.16 µM
[6] = second compound 0.0316 µM, first compound 10 µM
[7] = second compound 0.1 µM, first compound 0.0316 µM
[8] = second compound 0.1 µM, first compound 0.1 µM
[9] = second compound 0.1 µM, first compound 0.316 µM
[10] = second compound 0.1 µM, first compound 1 µM
[11] = second compound 0.1 µM, first compound 3.16 µM
[12] = second compound 0.1 µM, first compound 10 µM
[13] = second compound 0.316 µM, first compound 0.0316 µM
[14] = second compound 0.316 µM, first compound 0.1 µM
[15] = second compound 0.316 µM, first compound 0.316 µM
[16] = second compound 0.316 µM, first compound 1 µM
[17] = second compound 0.316 µM, first compound 3.16 µM
[18] = second compound 0.316 µM, first compound 10 µM
[19] = second compound 1 µM, first compound 0.0316 µM
[20] = second compound 1 µM, first compound 0.1 µM
[21] = second compound 1 µM, first compound 0.316 µM
[22] = second compound 1 µM, first compound 1 µM
[23] = second compound 1 µM, first compound 3.16 µM
[24] = second compound 1 µM, first compound 10 µM
[25] = second compound 3.16 µM, first compound 0.0316 µM
[26] = second compound 3.16 µM, first compound 0.1 µM
[27] = second compound 3.16 µM, first compound 0.316 µM
[28] = second compound 3.16 µM, first compound 1 µM
[29] = second compound 3.16 µM, first compound 3.16 µM
[30] = second compound 3.16 µM, first compound 10 µM
[31] = second compound 10 µM, first compound 0.0316 µM
[32] = second compound 10 µM, first compound 0.1 µM
[33] = second compound 10 µM, first compound 0.316 µM
[34] = second compound 10 µM, first compound 1 µM
[35] = second compound 10 µM, first compound 3.16 µM
[36] = second compound 10 µM, first compound 10 µM
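Note: spheroids exposed to agents for seven days before readout.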

Cn1ncc(Cl)c1-c1cc(C(=O)NC(CN)Cc2cccc(F)c2)sc1Cl (centres undefined) + CC(Nc1ncnc2nc[nH]c12)c1cc2cccc(Cl)c2c(=O)n1-c1ccccc1
2.94 µM: IC50 (second compound 0.0316 µM)
2.21 µM: IC50 (second compound 3.16 µM)
2.49 µM: IC50 (second compound 10 µM)
3.34 µM: IC50 (second compound 0.1 µM)
2.55 µM: IC50 (second compound 1 µM)
2.17 µM: IC50 (second compound 0.316 µM)
inactive: viability, T/C [1] 95.2% | viability, T/C [2] 98.3% | viability, T/C [3] 88.7% | viability, T/C [4] 70.6% | viability, T/C [5] 49.7% | viability, T/C [6] 32.1% | viability, T/C [7] 103% | viability, T/C [8] 104% | viability, T/C [9] 92.7% | viability, T/C [10] 77.5% | viability, T/C [11] 50.8% | viability, T/C [12] 30.9% | viability, T/C [13] 106% | viability, T/C [14] 108% | viability, T/C [15] 90.8% | viability, T/C [16] 60.4% | viability, T/C [17] 48.5% | viability, T/C [18] 27.1% | viability, T/C [19] 111% | viability, T/C [20] 101% | viability, T/C [21] 90.1% | viability, T/C [22] 61.8% | viability, T/C [23] 49.9% | viability, T/C [24] 31% | viability, T/C [25] 105% | viability, T/C [26] 105% | viability, T/C [27] 89.4% | viability, T/C [28] 65.4% | viability, T/C [29] 44.4% | viability, T/C [30] 24.5% | viability, T/C [31] 97.2% | viability, T/C [32] 95.8% | viability, T/C [33] 89.5% | viability, T/C [34] 75.4% | viability, T/C [35] 43% | viability, T/C [36] 25%

Cn1nccc1Nc1nccc(-c2ccn(C(CO)c3ccc(Cl)c(F)c3)c(=O)c2)n1 (centres undefined) + CC(Nc1ncnc2nc[nH]c12)c1cc2cccc(Cl)c2c(=O)n1-c1ccccc1
5.14 µM: IC50 (second compound 10 µM)
inactive: viability, T/C [1] 101% | viability, T/C [2] 98.8% | viability, T/C [3] 100% | viability, T/C [4] 97.7% | viability, T/C [5] 87.9% | viability, T/C [6] 60.2% | viability, T/C [7] 101% | viability, T/C [8] 99.4% | viability, T/C [9] 97% | viability, T/C [10] 93.2% | viability, T/C [11] 86.7% | viability, T/C [12] 65.2% | viability, T/C [13] 107% | viability, T/C [14] 107% | viability, T/C [15] 86.5% | viability, T/C [16] 93.8% | viability, T/C [17] 89.4% | viability, T/C [18] 61.3% | viability, T/C [19] 109% | viability, T/C [20] 99.5% | viability, T/C [21] 99.3% | viability, T/C [22] 90.8% | viability, T/C [23] 92.6% | viability, T/C [24] 56.5% | viability, T/C [25] 107% | viability, T/C [26] 105% | viability, T/C [27] 100% | viability, T/C [28] 92.2% | viability, T/C [29] 87.1% | viability, T/C [30] 48.3% | viability, T/C [31] 109% | viability, T/C [32] 99.5% | viability, T/C [33] 92.1% | viability, T/C [34] 83.8% | viability, T/C [35] 64.1% | viability, T/C [36] 31.4%
> 10 µM: IC50 (second compound 0.0316 µM) | IC50 (second compound 0.1 µM) | IC50 (second compound 0.316 µM) | IC50 (second compound 1 µM)
9.79 µM: IC50 (second compound 3.16 µM)
